Key:
HDAC3 = molecular target: T1, HDAC3 (Homo sapiens, UniProt O15379); experiment: In vitro HDAC enzyme inhibition assay, HDAC3; format: biochemical; details: for HDAC3/HDAC6 in vitro selectivity: ratio of IC50 for HDAC3 relative to that of HDAC6; for IC50: recombinant full-length HDAC3, substrate MAZ1600 9 μM
T1 construct: Recombinant, full-length HDAC protein (BPS Biosciences) was incubated with fluorophore conjugated substrate; purchased BPS Biosciences
Procedure: (§1) In vitro Histone Deacetylase enzyme assays were performed using Class I (isoforms: HDAC1, HDAC2, HDAC3 and HDAC8), class IIa (isoforms: HDAC4, HDAC5, HDAC7 and HDAC9) and class IIb (isoform HDAC6).
(§2) HDAC activities were determined in vitro with an optimized homogenous assay performed in a 384-well plate. Recombinant, full-length HDAC protein (BPS Biosciences) was incubated with fluorophore conjugated substrate, MAZ1600 and MAZ1675, at Km=[S]. […] Reactions were performed in assay buffer (50 mM HEPES, 100 mM KCl, 0.001% Tween-20, 0.05% BSA, 200 μM tris(2-carboxyethyl)phosphine (TCEP), pH 7.4) and followed for fluorogenic release of 7-amino-4-methylcoumarin from substrate upon deacetylase and trypsin enzymatic activity. Fluorescence measurements were obtained every five minutes using a multilabel plate reader and plate-stacker (Envision; Perkin-Elmer). Each plate was analyzed by plate repeat, and the first derivative within the linear range was imported into analytical software (Spotfire DecisionSite and GraphPad Prism). Replicate experimental data from incubations with inhibitor were normalized to controls.

HDAC8 = molecular target: T2, HDAC8 (Homo sapiens, UniProt Q9BY41); experiment: In vitro HDAC enzyme inhibition assay, HDAC8; format: biochemical; details: for HDAC8/HDAC6 in vitro selectivity: ratio of IC50 for HDAC8 relative to that of HDAC6; for IC50: recombinant full-length HDAC8, substrate MAZ1675 282 μM
T2 construct: Recombinant, full-length HDAC protein (BPS Biosciences) was incubated with fluorophore conjugated substrate; purchased BPS Biosciences
T2 sequence (Q9BY41 1-377): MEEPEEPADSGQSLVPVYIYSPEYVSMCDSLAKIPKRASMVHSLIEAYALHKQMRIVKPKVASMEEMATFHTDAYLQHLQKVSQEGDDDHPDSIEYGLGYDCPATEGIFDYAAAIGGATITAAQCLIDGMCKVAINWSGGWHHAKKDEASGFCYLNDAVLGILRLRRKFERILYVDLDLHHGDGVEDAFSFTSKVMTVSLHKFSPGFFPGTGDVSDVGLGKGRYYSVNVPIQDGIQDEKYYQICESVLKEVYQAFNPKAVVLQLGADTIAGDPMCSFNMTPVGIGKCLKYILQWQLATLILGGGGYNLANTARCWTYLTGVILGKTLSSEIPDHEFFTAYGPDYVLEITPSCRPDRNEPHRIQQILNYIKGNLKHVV
Procedure: as §1, §2

HDAC6 = molecular target: T3, HDAC6 (Homo sapiens, UniProt Q9UBN7); experiment: In vitro HDAC enzyme inhibition assay, HDAC6; format: biochemical; details: recombinant full-length HDAC6, substrate MAZ1600 9 μM
T3 construct: Recombinant, full-length HDAC protein (BPS Biosciences) was incubated with fluorophore conjugated substrate; purchased BPS Biosciences
T3 sequence (Q9UBN7 1-1215): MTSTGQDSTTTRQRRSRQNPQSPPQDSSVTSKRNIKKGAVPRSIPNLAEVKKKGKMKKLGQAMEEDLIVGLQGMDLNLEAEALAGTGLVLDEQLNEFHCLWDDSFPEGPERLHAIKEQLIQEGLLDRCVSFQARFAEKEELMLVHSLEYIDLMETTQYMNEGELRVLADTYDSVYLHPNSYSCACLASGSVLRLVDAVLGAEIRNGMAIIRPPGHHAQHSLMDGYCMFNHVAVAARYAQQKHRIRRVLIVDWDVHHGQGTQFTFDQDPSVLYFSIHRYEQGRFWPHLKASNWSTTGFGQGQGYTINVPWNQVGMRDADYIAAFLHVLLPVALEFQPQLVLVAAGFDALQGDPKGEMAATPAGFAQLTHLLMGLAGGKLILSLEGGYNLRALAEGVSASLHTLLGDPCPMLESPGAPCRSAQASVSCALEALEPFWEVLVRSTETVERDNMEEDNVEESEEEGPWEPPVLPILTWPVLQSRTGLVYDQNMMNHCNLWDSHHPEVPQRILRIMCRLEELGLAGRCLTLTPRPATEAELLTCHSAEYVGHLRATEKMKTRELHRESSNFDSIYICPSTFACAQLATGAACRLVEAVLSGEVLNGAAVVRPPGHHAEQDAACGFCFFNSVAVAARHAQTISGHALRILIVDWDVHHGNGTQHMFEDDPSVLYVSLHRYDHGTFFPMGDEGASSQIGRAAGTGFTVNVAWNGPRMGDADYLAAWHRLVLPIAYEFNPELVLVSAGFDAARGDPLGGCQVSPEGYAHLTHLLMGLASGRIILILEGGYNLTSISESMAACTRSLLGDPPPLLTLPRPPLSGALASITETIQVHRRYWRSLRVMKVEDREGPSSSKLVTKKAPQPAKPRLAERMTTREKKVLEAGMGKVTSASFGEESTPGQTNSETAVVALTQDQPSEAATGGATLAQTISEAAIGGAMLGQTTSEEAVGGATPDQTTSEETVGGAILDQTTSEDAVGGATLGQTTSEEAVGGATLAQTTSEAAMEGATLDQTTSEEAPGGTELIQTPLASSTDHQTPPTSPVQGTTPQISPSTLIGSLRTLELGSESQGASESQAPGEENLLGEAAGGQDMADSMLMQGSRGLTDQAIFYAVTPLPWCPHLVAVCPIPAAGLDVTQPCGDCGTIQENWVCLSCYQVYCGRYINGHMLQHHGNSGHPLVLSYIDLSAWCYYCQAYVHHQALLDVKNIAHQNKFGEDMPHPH
Procedure: as §1, §2

acetylated tubulin = experiment: High-content image analysis of induction of acetylated tubulin in A549 cells; details: for EC50: Homo sapiens, A549, 8 h, read-out: EC50 for half-maximal induction of acetylated tubulin (AcTubulin); for AcHistone/AcTubulin in cell selectivity toward HDAC6: ratio of EC50 acetylated histone to EC50 acetylated tubulin, A549 cells
Procedure: (§3) Cells were treated with each test HDACi compound with an automated pin transfer instrument (Janus, Perkin Elmer) and incubated for 8 hours. […] Fixation solution was aspirated and 90 μL of washing solution (0.1% Triton X-100 in PBS) was added prior to 10 minute incubation at 4° C. Washing solution was aspirated and cells were incubated at 4° C. for about 1 hour in blocking solution (0.1% Triton X-100+2% BSA in PBS). Washing solution was aspirated, and cells were incubated for about 1 hour at 4° C. in primary antibody for acetylated-tubulin (Sigma T7451) and acetylated-histone (Cell Signaling #9441L) at a 1:1000 dilution in blocking solution. Primary antibody solution was aspirated, and cells were washed three times in 90 μL of washing solution. […] Secondary antibody and nuclear staining solution was aspirated and cells were washed three times in 90 μL of washing solution. After the third wash, 50 μL of PBS was added to each well. Image acquisition was done on a high content imaging microscope (ImageXpress Micro, Molecular Devices), and image analysis (MetaXpress, Molecular Devices) was performed to obtain average acetylated-tubulin and acetylated-histone signal per cell based on treatment. Replicate experimental data from incubations with inhibitor were normalized to DMSO controls.

HDAC1 = molecular target: T4, HDAC1 (Homo sapiens, UniProt Q13547); experiment: In vitro HDAC enzyme inhibition assay, HDAC1; format: biochemical; details: for HDAC1/HDAC6 in vitro selectivity: ratio of IC50 for HDAC1 relative to that of HDAC6; for IC50: recombinant full-length HDAC1, substrate MAZ1600 21 μM
T4 construct: Recombinant, full-length HDAC protein (BPS Biosciences) was incubated with fluorophore conjugated substrate; purchased BPS Biosciences
T4 sequence (Q13547 whole entry): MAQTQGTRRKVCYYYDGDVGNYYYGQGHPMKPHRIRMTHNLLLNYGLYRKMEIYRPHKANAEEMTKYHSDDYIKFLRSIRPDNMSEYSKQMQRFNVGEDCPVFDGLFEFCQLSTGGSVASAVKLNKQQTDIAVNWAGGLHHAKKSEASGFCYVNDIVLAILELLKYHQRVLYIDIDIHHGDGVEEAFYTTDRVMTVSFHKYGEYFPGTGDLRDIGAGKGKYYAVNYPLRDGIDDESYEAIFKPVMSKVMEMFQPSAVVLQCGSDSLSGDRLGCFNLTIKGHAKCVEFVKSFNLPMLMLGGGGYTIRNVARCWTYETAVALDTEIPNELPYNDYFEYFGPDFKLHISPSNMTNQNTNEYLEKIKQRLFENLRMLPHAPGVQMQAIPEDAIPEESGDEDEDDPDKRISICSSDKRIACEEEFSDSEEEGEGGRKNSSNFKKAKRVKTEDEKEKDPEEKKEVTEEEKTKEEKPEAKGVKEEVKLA
Procedure: as §1, §2

acetylated histones = experiment: High-content image analysis of induction of acetylated histones in A549 cells; details: Homo sapiens, A549, 8 h, read-out: EC50 for half-maximal induction of acetylated histones (AcHistone)
Procedure: as §3

HDAC5 = molecular target: T5, HDAC5 (Homo sapiens, UniProt Q9UQL6); experiment: In vitro HDAC enzyme inhibition assay, HDAC5; format: biochemical; details: for HDAC5/HDAC6 in vitro selectivity: ratio of IC50 for HDAC5 relative to that of HDAC6; for IC50: recombinant full-length HDAC5, substrate MAZ1675 40 μM
T5 construct: Recombinant, full-length HDAC protein (BPS Biosciences) was incubated with fluorophore conjugated substrate; purchased BPS Biosciences
T5 sequence (Q9UQL6 whole entry): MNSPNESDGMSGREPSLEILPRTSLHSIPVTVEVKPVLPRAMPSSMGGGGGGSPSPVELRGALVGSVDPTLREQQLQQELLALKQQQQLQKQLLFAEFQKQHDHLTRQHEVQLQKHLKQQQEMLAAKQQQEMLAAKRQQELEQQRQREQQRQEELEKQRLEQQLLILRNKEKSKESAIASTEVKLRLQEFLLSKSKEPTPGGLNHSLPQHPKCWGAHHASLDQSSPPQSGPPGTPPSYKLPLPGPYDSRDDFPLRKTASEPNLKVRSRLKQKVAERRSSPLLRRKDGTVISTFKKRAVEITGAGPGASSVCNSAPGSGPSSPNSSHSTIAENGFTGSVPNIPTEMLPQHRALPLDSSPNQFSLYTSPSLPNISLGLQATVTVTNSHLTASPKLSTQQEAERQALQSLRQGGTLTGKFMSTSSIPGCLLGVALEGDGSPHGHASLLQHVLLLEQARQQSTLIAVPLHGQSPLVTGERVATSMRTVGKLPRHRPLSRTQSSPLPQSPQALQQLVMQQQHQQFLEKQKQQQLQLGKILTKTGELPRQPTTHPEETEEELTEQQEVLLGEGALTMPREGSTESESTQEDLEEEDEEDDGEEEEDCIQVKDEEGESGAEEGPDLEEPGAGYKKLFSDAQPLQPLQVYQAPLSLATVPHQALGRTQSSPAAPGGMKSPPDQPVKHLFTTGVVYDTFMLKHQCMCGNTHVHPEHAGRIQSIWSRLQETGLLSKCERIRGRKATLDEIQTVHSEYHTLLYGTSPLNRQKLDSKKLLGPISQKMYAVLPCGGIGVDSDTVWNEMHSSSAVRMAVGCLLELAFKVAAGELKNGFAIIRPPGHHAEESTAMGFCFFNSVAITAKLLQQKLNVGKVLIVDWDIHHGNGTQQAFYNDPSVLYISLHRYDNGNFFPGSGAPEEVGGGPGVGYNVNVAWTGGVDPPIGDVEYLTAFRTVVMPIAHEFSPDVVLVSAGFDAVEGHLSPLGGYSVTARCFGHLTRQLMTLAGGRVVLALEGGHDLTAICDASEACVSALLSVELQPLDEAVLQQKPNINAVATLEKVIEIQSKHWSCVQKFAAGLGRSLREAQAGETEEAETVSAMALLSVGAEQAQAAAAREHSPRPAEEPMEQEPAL
Procedure: as §1, §2

HDAC9 = molecular target: T6, HDAC9 (Homo sapiens, UniProt Q9UKV0); experiment: In vitro HDAC enzyme inhibition assay, HDAC9; format: biochemical; details: for HDAC9/HDAC6 in vitro selectivity: ratio of IC50 for HDAC9 relative to that of HDAC6; for IC50: recombinant full-length HDAC9, substrate MAZ1675 26 μM; for selectivity toward HDAC6 compared to HDAC9 (in words): tested in vitro
T6 construct: Recombinant, full-length HDAC protein (BPS Biosciences) was incubated with fluorophore conjugated substrate; purchased BPS Biosciences
T6 sequence (Q9UKV0 whole entry): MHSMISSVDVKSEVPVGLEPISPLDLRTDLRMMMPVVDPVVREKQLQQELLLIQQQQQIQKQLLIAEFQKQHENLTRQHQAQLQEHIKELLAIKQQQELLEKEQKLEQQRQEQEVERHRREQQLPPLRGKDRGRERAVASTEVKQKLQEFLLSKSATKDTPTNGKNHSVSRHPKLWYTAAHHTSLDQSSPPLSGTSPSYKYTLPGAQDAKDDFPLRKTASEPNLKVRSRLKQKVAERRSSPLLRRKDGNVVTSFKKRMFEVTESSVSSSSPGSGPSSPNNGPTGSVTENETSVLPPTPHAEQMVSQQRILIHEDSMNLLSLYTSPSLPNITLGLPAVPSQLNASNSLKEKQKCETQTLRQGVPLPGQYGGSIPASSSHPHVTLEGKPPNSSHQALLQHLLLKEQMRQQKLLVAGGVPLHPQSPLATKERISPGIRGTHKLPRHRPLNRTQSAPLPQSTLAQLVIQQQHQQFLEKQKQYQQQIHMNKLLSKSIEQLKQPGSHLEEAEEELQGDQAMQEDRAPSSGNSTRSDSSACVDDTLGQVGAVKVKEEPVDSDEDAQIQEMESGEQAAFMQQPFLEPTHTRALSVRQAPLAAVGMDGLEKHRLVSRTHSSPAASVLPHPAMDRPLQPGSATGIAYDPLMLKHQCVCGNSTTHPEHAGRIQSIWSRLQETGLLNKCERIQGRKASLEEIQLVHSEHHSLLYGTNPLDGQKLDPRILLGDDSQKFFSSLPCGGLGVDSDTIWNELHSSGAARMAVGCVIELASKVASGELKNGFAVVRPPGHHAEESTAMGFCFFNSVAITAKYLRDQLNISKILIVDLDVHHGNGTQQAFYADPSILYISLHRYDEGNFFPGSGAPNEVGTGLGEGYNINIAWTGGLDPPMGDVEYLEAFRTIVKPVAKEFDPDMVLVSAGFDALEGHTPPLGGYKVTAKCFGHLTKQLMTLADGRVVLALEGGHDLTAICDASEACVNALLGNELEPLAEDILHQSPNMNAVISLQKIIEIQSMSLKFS
Procedure: as §1, §2

HDAC4 = molecular target: T7, HDAC4 (Homo sapiens, UniProt P56524); experiment: In vitro HDAC enzyme inhibition assay, HDAC4; format: biochemical; details: for HDAC4/HDAC6 in vitro selectivity: ratio of IC50 for HDAC4 relative to that of HDAC6; for IC50: recombinant full-length HDAC4, substrate MAZ1675 10 μM; for selectivity toward HDAC6 compared to HDAC4 (in words): tested in vitro
T7 construct: Recombinant, full-length HDAC protein (BPS Biosciences) was incubated with fluorophore conjugated substrate; purchased BPS Biosciences
T7 sequence (P56524 whole entry): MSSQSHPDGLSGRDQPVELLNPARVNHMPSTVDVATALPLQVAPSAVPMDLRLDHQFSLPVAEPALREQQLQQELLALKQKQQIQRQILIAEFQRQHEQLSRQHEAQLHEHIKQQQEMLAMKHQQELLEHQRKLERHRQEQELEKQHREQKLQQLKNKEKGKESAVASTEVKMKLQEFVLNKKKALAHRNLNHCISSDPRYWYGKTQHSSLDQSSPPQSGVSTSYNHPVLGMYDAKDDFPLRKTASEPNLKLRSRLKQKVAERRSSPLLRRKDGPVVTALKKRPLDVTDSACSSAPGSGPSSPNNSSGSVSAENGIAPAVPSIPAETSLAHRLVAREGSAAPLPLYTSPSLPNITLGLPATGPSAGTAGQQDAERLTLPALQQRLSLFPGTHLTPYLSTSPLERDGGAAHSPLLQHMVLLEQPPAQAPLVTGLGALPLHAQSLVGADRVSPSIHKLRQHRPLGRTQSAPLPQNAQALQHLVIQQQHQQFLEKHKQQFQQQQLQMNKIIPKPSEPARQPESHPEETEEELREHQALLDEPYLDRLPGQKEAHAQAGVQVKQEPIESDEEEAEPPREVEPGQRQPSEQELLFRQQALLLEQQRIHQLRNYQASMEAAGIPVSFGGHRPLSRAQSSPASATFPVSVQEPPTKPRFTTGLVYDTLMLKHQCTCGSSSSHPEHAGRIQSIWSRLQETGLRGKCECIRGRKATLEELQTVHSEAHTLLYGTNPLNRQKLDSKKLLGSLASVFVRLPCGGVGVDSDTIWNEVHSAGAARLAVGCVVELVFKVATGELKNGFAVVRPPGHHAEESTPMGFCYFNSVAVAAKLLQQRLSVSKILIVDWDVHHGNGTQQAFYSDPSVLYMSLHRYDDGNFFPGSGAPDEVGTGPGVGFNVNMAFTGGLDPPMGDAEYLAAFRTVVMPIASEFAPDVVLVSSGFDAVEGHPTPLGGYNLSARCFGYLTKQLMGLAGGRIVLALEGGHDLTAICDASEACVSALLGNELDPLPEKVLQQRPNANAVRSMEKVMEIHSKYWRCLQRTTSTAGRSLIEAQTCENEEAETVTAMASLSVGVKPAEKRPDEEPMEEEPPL
Procedure: as §1, §2

T1 sequence (O15379 whole entry): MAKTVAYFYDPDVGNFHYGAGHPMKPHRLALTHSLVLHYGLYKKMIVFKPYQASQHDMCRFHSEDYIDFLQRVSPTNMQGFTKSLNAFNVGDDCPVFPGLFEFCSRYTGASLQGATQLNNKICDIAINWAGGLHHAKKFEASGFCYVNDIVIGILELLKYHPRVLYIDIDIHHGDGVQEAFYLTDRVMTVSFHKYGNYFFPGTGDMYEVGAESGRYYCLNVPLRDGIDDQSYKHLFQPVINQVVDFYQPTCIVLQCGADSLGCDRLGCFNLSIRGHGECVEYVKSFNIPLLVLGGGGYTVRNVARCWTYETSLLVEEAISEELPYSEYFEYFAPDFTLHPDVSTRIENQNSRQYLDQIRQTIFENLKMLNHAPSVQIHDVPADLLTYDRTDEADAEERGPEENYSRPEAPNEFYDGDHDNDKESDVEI
T1 sequence (Q9Y618 395-489 partner limits assumed): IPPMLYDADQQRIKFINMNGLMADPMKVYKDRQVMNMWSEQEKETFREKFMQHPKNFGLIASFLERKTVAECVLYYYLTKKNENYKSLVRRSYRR

| SMILES | HDAC3/HDAC6 in vitro selectivity (HDAC3) | IC50 (HDAC3) | HDAC8/HDAC6 in vitro selectivity (HDAC8) | IC50 (HDAC8) | IC50 (HDAC6) | EC50 (acetylated tubulin) | AcHistone/AcTubulin in cell selectivity toward HDAC6 (acetylated tubulin) | HDAC1/HDAC6 in vitro selectivity (HDAC1) | IC50 (HDAC1) | EC50 (acetylated histones) | HDAC5/HDAC6 in vitro selectivity (HDAC5) | IC50 (HDAC5) | HDAC9/HDAC6 in vitro selectivity (HDAC9) | IC50 (HDAC9) | HDAC4/HDAC6 in vitro selectivity (HDAC4) | IC50 (HDAC4) | selectivity toward HDAC6 compared to HDAC9 (in words) (HDAC9) | selectivity toward HDAC6 compared to HDAC4 (in words) (HDAC4) | selectivity toward HDAC6 compared to HDAC5 (in words) (HDAC5; tested in vitro) |
| --- | --- | --- | --- | --- | --- | --- | --- | --- | --- | --- | --- | --- | --- | --- | --- | --- | --- | --- | --- |
| Cc1ccc2c(c1)nc(C(F)(F)F)n2Cc1ccc(C(=O)NO)cc1 [A2, N-hydroxy-4-((5-methyl-2-(trifluoromethyl)-1H-benzo[d]imidazol-1-yl)methyl)benzamide] | 3718 | 1140 nM | 4364 | 1330 nM | 0.306 nM | 100 nM | 2.411 | 808 | 247 nM | 242 nM | 537 | 164 nM | 1942 | 594 nM | 2775 | 848 nM |  |  |  |
| Cc1ccc2c(c1)ncn2Cc1ccc(C(=O)NO)cc1 [A8, N-hydroxy-4-((5-methyl-1H-benzo[d]imidazol-1-yl)methyl)benzamide] | 1596 | 608 nM | 2847 | 1080 nM | 0.381 nM | 105 nM | 0.7591 | 688 | 262 nM | 79.5 nM | 3687 | 1400 nM | 5975 | 2280 nM | 7247 | 2760 nM |  |  |  |
| O=C(NO)c1ccc(Cn2c(=O)[nH]c3cc(Cl)ccc32)cc1 [B4, 4-((5-chloro-2-oxo-2,3-dihydro-1H-benzo[d]imidazol-1-yl)methyl)-N-hydroxybenzamide] | 353 | 8.92 nM | 6673 | 169 nM | 0.0253 nM | 80.5 nM | 5.217 | 209 | 5.29 nM | 420 nM | 22793 | 576 nM | 16475 | 416 nM | 25301 | 639 nM |  |  |  |
| O=C(NO)c1ccc(Cn2cnc3cc(Br)ccc32)cc1 [A11, 4-((5-bromo-1H-benzo[d]imidazol-1-yl)methyl)-N-hydroxybenzamide] | 3936 | 65.6 nM | 18285 | 305 nM | 0.0167 nM | 174 nM | 11.31 | 1725 | 28.7 nM | 1970 nM | 25649 | 427 nM | 61100 | 1020 nM | 93190 | 1550 nM | exceptionally high selectivity (Inhibitors with in vitro selectivity values for HDAC6 of at least 30,000 are considered to have exceptionally high selectivity toward HDAC6) | exceptionally high selectivity (Inhibitors with in vitro selectivity values for HDAC6 of at least 30,000 are considered to have exceptionally high selectivity toward HDAC6) |  |
| O=C(NO)c1ccc(Cn2nnc3cc(Br)ccc32)cc1 [C5, 4-((5-bromo-1H-benzo[d][1,2,3]triazol-1-yl)methyl)-N-hydroxybenzamide] | 4479 | 115 nM | 16483 | 425 nM | 0.0258 nM | 150 nM | 15.37 | 2113 | 54.5 nM | 2300 nM | 48751 | 1260 nM | 42107 | 1090 nM | 60319 | 1560 nM | exceptionally high selectivity (Inhibitors with in vitro selectivity values for HDAC6 of at least 30,000 are considered to have exceptionally high selectivity toward HDAC6) | exceptionally high selectivity (Inhibitors with in vitro selectivity values for HDAC6 of at least 30,000 are considered to have exceptionally high selectivity toward HDAC6) | exceptionally high selectivity (Inhibitors with in vitro selectivity values for HDAC6 of at least 30,000 are considered to have exceptionally high selectivity toward HDAC6) |

From patent publication US20150197497A1, “SELECTIVE INHIBITORS OF HISTONE DEACETYLASE ISOFORM 6 AND METHODS THEREOF” (DANA-FARBER CANCER INSTITUTE, INC., priority 2011, published 2015)
